# Results as given in article PMC11637378, “Optogenetic screening of MCT1 activity implicates a cluster of non-steroidal anti-inflammatory drugs (NSAIDs) as inhibitors of lactate transport” (PLOS ONE, 2024).
# Counter-ions that a name gives are not always drawn.
# Test system: parent strain (SAWy518)
# Details: not given
Molecule,Offscreen_18hr,Offscreen_24hr,Offscreen_42hr,Offtarget,Offtarget_sub,OffScreen_percentage [percentage],Read_percentage,18 hours,24 hours,48 hours
O=C(O)/C=C/C=C/c1ccccc1 [JUAREZIC ACID],0.6813,0.7831,0.827,–,–,–,–,–,–,–
COc1cc(C)c2c(=O)c(-c3ccccc3)coc2c1 [METHOXYVONE],0.7685,0.8867,0.9442,–,–,–,–,–,–,–
Cc1cc(C(C)(C)CC(C)(C)C)ccc1OCCOCC[N+](C)(C)Cc1ccccc1.[Cl-] [METHYLBENZETHONIUM CHLORIDE],0.7745,0.875,0.932,–,–,–,–,–,–,–
CC[N+](CC)(CC)CCOc1ccc(/C=C/c2ccccc2)cc1 [MG 624],0.5585,0.7684,0.9127,–,–,–,–,–,–,–
O=C(O)[C@]1(Cc2cccc(Nc3nccs3)n2)CC[C@@H](Oc2cccc(Cl)c2F)CC1 [MK-5108 (VX-689)],0.6785,0.8599,0.9444,–,–,–,–,–,–,–
"Cl.O=S(=O)(c1cccc2c(I)cccc12)N1CCCNCC1 [ML-7, reference compound]",–,–,–,NO,0.3788,–,–,–,–,–
O=[N+]([O-])/C=C/c1ccc2c(c1)OCO2 [MNS],0.2427,0.4675,0.9062,–,–,–,–,–,–,–
COc1c(C)c2c(c(O)c1C/C=C(\C)CCC(=O)OCCN1CCOCC1)C(=O)OC2 [MYCOPHENOLATE MOFETIL],0.5798,0.792,0.9179,–,–,–,–,–,–,–
COc1c(C)c2c(c(O)c1C/C=C(\C)CCC(=O)O)C(=O)OC2 [MYCOPHENOLIC ACID],0.6454,0.8395,0.9254,–,–,–,–,–,–,–
CN(C)c1ccc2nc3ccc(=[N+](C)C)cc-3sc2c1.O.O.O.[Cl-] [Methylene Blue],0.8664,0.9565,1.0182,–,–,–,–,–,–,–
CCN(CC)C(=O)[C@]1(c2ccccc2)C[C@@H]1CN.Cl [Milnacipran hydrochloride],0.8463,0.9181,0.9801,–,–,–,–,–,–,–
COc1c(C)c2c(c(O)c1C/C=C(\C)CCC(=O)O)C(=O)OC2 [Mycophenolic (Mycophenolate)],0.6524,0.8532,0.951,–,–,–,–,–,–,–
O=[N+]([O-])c1ccc(O)c2ncccc12 [NITROXOLINE],0.0416,0.0414,0.0729,–,–,–,–,–,–,–
"CC(Cc1ccc(O)c(O)c1)C(C)Cc1ccc(O)c(O)c1 (stereo not shown) [Nordihydroguaiaretic acid, reference compound]",0.8169,0.9084,0.9699,–,–,101.227,101.227 percentage,–,–,–
NCC(=O)Nc1ccc(-n2nc(C(F)(F)F)cc2-c2ccc3c(ccc4ccccc43)c2)cc1 [OSU-03012 (AR-12)],0.0821,0.1608,0.9195,–,–,–,–,–,–,–
O=C(/C=C/c1ccc(O)c(O)c1)OCCc1ccccc1 [PHENETHYL CAFFEATE (CAPE)],0.3307,0.5133,0.8223,–,–,–,–,–,–,–
O=C1c2ccccc2C(=O)c2c(O)c(O)cc(O)c21 [PURPURIN],0.5082,0.6741,0.7778,–,–,–,–,–,–,–
CCCc1c(-c2ccc(O)cc2)nn(-c2ccc(O)cc2)c1-c1ccc(O)cc1 [Propylpyrazole triol],–,–,–,–,–,–,98.9963 percentage,–,–,–
CO[C@H]1C[C@@H]2CC[C@@H](C)[C@@](O)(O2)C(=O)C(=O)N2CCCC[C@H]2C(=O)O[C@H]([C@H](C)C[C@@H]2CC[C@@H](O)[C@H](OC)C2)CC(=O)[C@H](C)/C=C(\C)[C@@H](O)[C@@H](OC)C(=O)[C@H](C)C[C@H](C)/C=C/C=C/C=C/1C [Rapamycin],0.0498,0.0505,0.0758,–,–,–,–,–,–,–
Nc1ccc(-c2nc3ccc(-c4nc5cc(N)ccc5[nH]4)cc3[nH]2)cc1 [Ro 90-7501],0.6647,0.8739,0.9612,–,–,–,–,–,–,–
"CS(=O)(=O)c1ccc(C2=C(c3ccccc3)C(=O)OC2)cc1 [Rofecoxib, reference compound]",0.8386,0.9205,0.975,–,–,103.916,103.916,–,–,–
N.N.N.N.N.N.N.N.N.N.N.N.N.N.[Cl-].[Cl-].[Cl-].[Cl-].[Cl-].[Cl-].[O-2].[O-2].[Ru+3].[Ru+3].[Ru+4] [Ruthenium red],0.6166,0.8198,0.9382,–,–,–,–,–,–,–

Molecule,Offscreen_18hr,Offscreen_24hr,Offscreen_42hr,Offtarget,Offtarget_sub,OffScreen_percentage [percentage],Read_percentage,18 hours,24 hours,48 hours
N#CC[C@@H](C1CCCC1)n1cc(-c2ncnc3[nH]ccc23)cn1 [S-Ruxolitinib (INCB018424)],0.6167,0.8199,0.9411,–,–,–,–,–,–,–
"CC[C@@H](C(=O)[C@@H](C)[C@@H](O)[C@H](C)[C@@H]1O[C@@H]([C@@H](CC)C(=O)[O-])CC[C@@H]1C)[C@H]1OC2(C=C[C@@H](O)[C@]3(CC[C@@](C)([C@H]4CC[C@](O)(CC)[C@H](C)O4)O3)O2)[C@H](C)C[C@@H]1C.[Na+] (stereo partly shown) [SALINOMYCIN, SODIUM]",0.1472,0.2295,0.8421,–,–,–,–,–,–,–
"NS(=O)(=O)c1ccc(-n2nc(C(F)(F)F)cc2-c2ccc(Cl)cc2)cc1 [SC-236, reference compound]",–,–,–,NO,0.2541,–,–,–,–,–
CO[C@H]1C[C@@H]2CC[C@@H](C)[C@@](O)(O2)C(=O)C(=O)N2CCCC[C@H]2C(=O)O[C@H]([C@H](C)C[C@@H]2CC[C@@H](O)[C@H](OC)C2)CC(=O)[C@H](C)/C=C(\C)[C@@H](O)[C@@H](OC)C(=O)[C@H](C)C[C@H](C)/C=C/C=C/C=C/1C [SIROLIMUS],0.341,0.5452,0.8609,–,–,–,–,–,–,–
Oc1ccc(Nc2nc(-c3ccc(Cl)cc3)cs2)cc1 [SKI II],0.4105,0.6287,0.8658,–,–,–,–,–,–,–
CC[C@H](C(=O)[C@H](C)[C@@H](O)[C@@H](C)[C@@H]1O[C@@H]([C@@H](CC)C(=O)O)CC[C@H]1C)[C@H]1O[C@]2(C=C[C@@H](O)[C@]3(CC[C@@](C)([C@H]4CC[C@](O)(CC)[C@H](C)O4)O3)O2)[C@H](C)C[C@H]1C [Salinomycin (Procoxacin)],0.8013,0.892,0.9461,–,–,–,–,–,–,–
C=CC[C@@H]1/C=C(\C)C[C@H](C)C[C@H](OC)[C@H]2O[C@@](O)(C(=O)C(=O)N3CCCC[C@H]3C(=O)O[C@H](/C(C)=C/[C@@H]3CC[C@@H](O)[C@H](OC)C3)[C@H](C)[C@@H](O)CC1=O)[C@H](C)C[C@@H]2OC [TACROLIMUS],0.727,0.8973,0.9661,–,–,–,–,–,–,–
O=C1NC(=O)/C(=C\c2cccc(C(F)(F)F)c2)S1 [TCS PIM-1 4a],0.5379,0.7077,0.7912,–,–,–,–,–,–,–
O=C(O)Cc1cc(I)c(Oc2ccc(O)c(I)c2)c(I)c1 [TIRATRICOL],0.6885,0.8174,0.855,–,–,–,–,–,–,–
"CCCCCCC(=O)OC1CC(C)(C)NC(C)(C)C1.Cl [TMPH hydrochloride, reference compound]",–,–,–,NO,0.4142,–,–,–,–,–
CC(C)(C)C(=O)C(Oc1ccc(Cl)cc1)n1cncn1 (stereo not shown) [TRIADIMEFON],0.0626,0.0684,0.2136,–,–,–,–,–,–,–
CSc1nc2cc(Cl)c(Oc3cccc(Cl)c3Cl)cc2[nH]1 [TRICLABENDAZOLE],0.3546,0.5896,0.8341,–,–,–,–,–,–,–
CO[C@H]1C[C@@H]2CC[C@@H](C)[C@@](O)(O2)C(=O)C(=O)N2CCCC[C@H]2C(=O)O[C@H]([C@H](C)C[C@@H]2CC[C@@H](OC(=O)C(C)(CO)CO)[C@H](OC)C2)CC(=O)[C@H](C)/C=C(\C)[C@@H](O)[C@@H](OC)C(=O)[C@H](C)C[C@H](C)/C=C/C=C/C=C/1C [Temsirolimus],0.0544,0.0562,0.0968,–,–,–,–,–,–,–
CN(C/C=C/C#CC(C)(C)C)Cc1cccc2ccccc12 [Terbinafine hydrochloride],0.3316,0.5468,0.9146,–,–,–,–,–,–,–
CCN(CC)C(=S)SSC(=S)N(CC)CC [Tetraethylthiuram disulfide],0.0416,0.0418,0.0415,–,–,–,–,–,–,–
Oc1cc(Cl)ccc1Oc1ccc(Cl)cc1Cl [Triclosan],0.1779,0.3017,0.8343,–,–,–,–,–,–,–
COc1ccc2c(c1)CC[C@@H]1[C@@H]2CC[C@]2(C)[C@H](NCCCCCCN3C(=O)C=CC3=O)CC[C@@H]12 [U 73122],0.5917,0.8296,0.9704,–,–,–,–,–,–,–
CCC[C@H](NC(=O)/C(C#N)=C/c1cccc(Br)n1)c1ccccc1 [WP1130],0.6544,0.8363,0.9253,–,–,–,–,–,–,–
CC(C)N(CCC(=O)c1ccc2ccccc2c1)Cc1ccccc1.Cl [ZM 39923 HCl],0.0402,0.0403,0.0401,–,–,–,–,–,–,–
O=c1[nH]c(=O)c2ccccc2o1 [pu-sc-0002 H19],–,–,–,–,–,–,–,0.7281,0.8523,0.8964
Erythrosine,0.8136,0.8985,0.9466,–,–,100.818,100.818 percentage,–,–,–
OXYCLOZANIDE,0.5071,0.6783,0.7815,–,–,–,–,–,–,–

# Same assay, conditions: parent strain growth reading, 18 hr
row,Molecule,Offscreen_18hr
1,CN(C)c1ccc2nc3ccc(=[N+](C)C)cc-3sc2c1 [Methylene Blue trihydrate],0.8664
2,JAK3 Inhibitor VI,0.0531

# Same assay, conditions: parent strain growth reading, 24 hr
row,Molecule,Offscreen_24hr
1,CN(C)c1ccc2nc3ccc(=[N+](C)C)cc-3sc2c1 [Methylene Blue trihydrate],0.9565
2,JAK3 Inhibitor VI,0.0592

# Same assay, conditions: parent strain growth reading, 42 hr
row,Molecule,Offscreen_42hr
1,CN(C)c1ccc2nc3ccc(=[N+](C)C)cc-3sc2c1 [Methylene Blue trihydrate],1.0182
2,JAK3 Inhibitor VI,0.0892
